Results from patent US9012655B2, “Antimicrobial/adjuvant compounds and methods” (Denouamed, Inc., priority 2011, dated 2015).
In brackets after ≈: the same amount, converted by molar mass.

Assays:
[1] = tested on: Methicillin-Resistant Staph. aureus (MRSA); assay: MIC, NCCLS M7-A6 broth microdilution, MRSA; format: cell-based; conditions: 16 to 20 h, 35 degrees Celsius; for MIC: Staphylococcus aureus, MRSA
Protocol: (§1) Susceptibilities to the compounds were determined using the National Committee for Clinical Laboratory Standards (NCCLS) M7-A6 broth microdilution method. Cation-adjusted Mueller-Hinton broth (Ca^2+, 25 μg/mL; Mg^2+, 12.5 μg/mL) microdilution panels were prepared to contain antimicrobial doubling dilution concentrations of an appropriate range. DMSO (dimethylsulfoxide) controls were incorporated into the panel to mimic the quantity of DMSO used in dissolving some of the compounds at the higher concentrations. Each final panel well volume was 100 μL with a bacterial inoculum of 5×10^5 CFU (colony forming units)/mL of the relevant bacterium. Panels were read following 16 to 20 h of incubation at 35 degrees Celsius in ambient air. The MIC (minimum inhibitory concentration) was defined as the lowest concentration of antimicrobial inhibiting visible growth.

[2] = biological target: AcpS enzyme (Escherichia coli, UniProt P24224); assay: Measurement of AcpS inhibition ([3H]acetyl-CoA incorporation into apo-ACP); format: biochemical; conditions: % activity vs blank-subtracted counts; for activity at 50 µM / % AcpS activity at 50 uM: test compound 50 uM; for remaining activity at 500 µM / % AcpS activity @ 500 uM: test compound 500 uM
Sequence of AcpS enzyme (P24224 whole entry): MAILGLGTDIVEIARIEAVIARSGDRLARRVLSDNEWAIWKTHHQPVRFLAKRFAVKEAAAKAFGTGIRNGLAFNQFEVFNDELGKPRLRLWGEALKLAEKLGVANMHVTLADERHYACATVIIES
Protocol: [^3H]Acetyl-CoA was mixed as 1 volume of Perkin Elmer NET290 radiolabeled stock (e.g. 0.1 mCi/ml, 3.7 Ci/mmol in Na-acetate, pH 4.5-5.0=27 μM) with 1.2 volumes of 1 mM unlabelled acetyl-CoA (Sigma). Trichloroacetic acid was prepared as a 10% w/v solution. Bovine serum albumin was prepared as a 25 mg/ml solution in water. DTT was prepared as a 50 mM solution in water.
• 1. A standard reaction contained the following in a total volume of 10 μl:
• 2. Tubes were incubated at RT. [^3H]acetyl-CoA was added last to start the reaction. To stop the reaction, 2 μl was removed to a 1.5-ml microfuge tube containing 800 μl cold 10% TCA. Up to four time points were collected for each reaction, e.g. at 5 min, 10 min, 30 min, and 60 min. • 3. 20 μl of 25 mg/ml BSA was added to each tube, mixed and incubated on ice for 10 min, then centrifuged at 12,000 g for 5 min to form a pellet. Supernatant was removed using P1000. • 4. Each pellet was washed twice with 800 μl of cold 10% TCA each time, then centrifuged at 12,000 g for 5 min after each wash. The supernatant was discarded. Each pellet was resuspended in 50 μl of formic acid. The suspension was transferred to a scintillation vial and radioactivity was measured in 2 ml of liquid scintillation cocktail.
The random (stochastic) error in scintillation counting is proportional to the square root of the counts (not dpm) accumulated in the counting period; i.e. 10% for 100, 3.3% for 1,000, 1% for 10,000, etc. Provided radioactive counts (dpm) are in the thousands, the assay provides useful data. Results are reported in terms of % activity with respect to the blank-subtracted counts for working substrate. A % activity of less than about 40% is indicative of AcpS enzyme inhibition by the test compound at that concentration.

[3] = tested on: E. coli D22; assay: MIC, NCCLS M7-A6 broth microdilution, E. coli D22; format: cell-based; conditions: 35 degrees Celsius; for MIC: Escherichia coli, D22, 16 to 20 h; for MIC E coli D22: 16 to 20 h
Protocol: as §1

| Compound | MIC [1] [µM] | activity at 50 µM [2] [%] | remaining activity at 500 µM [2] [%] | MIC [3] [µM] | MIC MRSA [1] [µM] | % AcpS activity at 50 uM [2] [%] | % AcpS activity @ 500 uM [2] [%] | MIC E coli D22 [3] [µM] |
| --- | --- | --- | --- | --- | --- | --- | --- | --- |
| Cc1ccc(-c2cc(-c3nnn[nH]3)sc2-c2ccc(C)c3ccccc23)c2ccccc12 [DNM0486, 5-(4,5-Bis(4-methylnaphthalen-1-yl)thiophen-2-yl)-1H-tetrazole] | 2 (≈ 0.865 µg/mL) | 0.82 | 0.16 | > 125 | – | – | – | – |
| FC(F)(F)c1ccccc1-c1cc(-c2nnn[nH]2)sc1-c1ccccc1C(F)(F)F [DNM0549, 5-(4,5-Bis(2-(trifluoromethyl)phenyl)thiophen-2-yl)-1H-tetrazole] | 30 (≈ 13.2 µg/mL) | 71.3 | 0.48 | > 125 | – | – | – | – |
| FC(F)(F)Oc1ccccc1-c1cc(-c2nnn[nH]2)sc1-c1ccccc1OC(F)(F)F [DNM0550, 5-(4,5-Bis(2-(trifluoromethoxy)phenyl)thiophen-2-yl)-1H-tetrazole] | 30 (≈ 14.2 µg/mL) | 47.8 | 0.39 | > 125 | – | – | – | – |
| CC(C)c1ccc(-c2cc(-c3nnn[nH]3)sc2-c2ccc(C(C)C)cc2)cc1 [DNM0512, 5-(4,5-Bis(4-isopropylphenyl)thiophen-2-yl)-1H-tetrazole] | 8 (≈ 3.11 µg/mL) | 37.3 | 0.7 | > 125 | – | – | – | – |
| CC(C)c1ccccc1-c1cc(-c2nnn[nH]2)sc1-c1ccccc1C(C)C [DNM0534, 5-(4,5-Bis(2-isopropylphenyl)thiophen-2-yl)-1H-tetrazole] | 8 (≈ 3.11 µg/mL) | 34 | 0 | > 125 | – | – | – | – |
| Cc1ccc(-c2cc(-c3nnn[nH]3)sc2-c2ccc(C)cc2Cl)c(Cl)c1 [DNM0563, 5-(4,5-Bis(2-chloro-4-methylphenyl)thiophen-2-yl)-1H-tetrazole] | 8 (≈ 3.21 µg/mL) | 15.1 | 0.56 | 125 (≈ 50.2 µg/mL) | – | – | – | – |
| c1ccc(C2CC2)c(-c2cc(-c3nnn[nH]3)sc2-c2ccccc2C2CC2)c1 [DNM0570] | – | – | – | – | 15 (≈ 5.77 µg/mL) | 33.7 | 0.19 | 125 (≈ 48.1 µg/mL) |
| Clc1ccccc1-c1cc(-c2nnn[nH]2)sc1-c1ccccc1Cl [DNM0538, 5-(4,5-Bis(2-chlorophenyl)thiophen-2-yl)-1H-tetrazole] | 30 (≈ 11.2 µg/mL) | 82.2 | 0.58 | > 125 | – | – | – | – |
| c1ccc(-c2ccccc2-c2cc(-c3nnn[nH]3)sc2-c2ccccc2-c2ccccc2)cc1 [DNM0489, 5-(4,5-Di(biphenyl-2-yl)thiophen-2-yl)-1H-tetrazole] | 2 (≈ 0.913 µg/mL) | 17.9 | 0 | > 125 | – | – | – | – |
| Cc1ccccc1-c1cc(-c2nn[nH]n2)cc(-c2ccccc2C)c1 [DNM0529] | – | – | – | – | 30 (≈ 9.79 µg/mL) | 91.56 | 0.16 | >125 |
| Cc1ccc(-c2ccc(-c3ccc(C)c4ccccc34)c(-c3nnn[nH]3)c2)c2ccccc12 [DNM0446, 5-(2,5-Bis(4-methylnaphthalen-1-yl)phenyl)-1H-tetrazole] | 4 (≈ 1.71 µg/mL) | – | 25.4 | > 125 | – | – | – | – |
| Cc1ccc(-c2cc(-c3nnn[nH]3)sc2Cc2ccc(Cl)cc2)c2ccccc12 [DNM0577, 5-(5-(4-Chlorobenzyl)-4-(4-methylnaphthalen-1-yl)thiophen-2-yl)-1H-tetrazole] | 8 (≈ 3.34 µg/mL) | 5.54 | 0.4 | > 125 | – | – | – | – |
| Clc1ccc(-c2cc(-c3nn[nH]n3)cc(-c3ccccc3-c3ccccc3)c2)cc1 [DNM0479] | – | – | – | – | 2 (≈ 0.818 µg/mL) | 12.79 | 0.1 | >125 |
| Cc1ccc(-c2cc(-c3nn[nH]n3)cc(-c3ccc(C)cc3-c3ccccc3)c2)c(-c2ccccc2)c1 [DNM0516] | – | – | – | – | 2 (≈ 0.957 µg/mL) | 32.01 | 5 | >125 |
| Cc1ccc(-c2cc(-c3nn[nH]n3)cc(-c3ccc(C)cc3Br)c2)c(Br)c1 [DNM0511] | – | – | – | – | 8 (≈ 3.87 µg/mL) | 14.36 | 0 | >125 |
| Cc1ccc(-c2cc(-c3ccc(Cl)cc3)cc(-c3nnn[nH]3)c2)c2ccccc12 [DNM0480, 5-(4′-Chloro-5-(4-methylnaphthalen-1-yl)biphenyl-3-yl)-1H-tetrazole] | 4 (≈ 1.59 µg/mL) | 7.35 | 2.04 | 125 (≈ 49.6 µg/mL) | – | – | – | – |
| Cc1ccc(-c2sc(-c3nnn[nH]3)cc2-c2ccc(Cl)cc2)c2ccccc12 [DNM0572, 5-(4-(4-Chlorophenyl)-5-(4-methylnaphthalen-1-yl)thiophen-2-yl)-1H-tetrazole] | 8 (≈ 3.22 µg/mL) | 4.41 | 0.51 | > 125 | – | – | – | – |
| Cc1cc(Cl)ccc1-c1ccc(-c2ccc(Cl)cc2C)c(-c2nnn[nH]2)c1 [DNM0447, 5-(2,5-Bis(4-chloro-2-methylphenyl)phenyl)-1H-tetrazole] | 15 (≈ 5.93 µg/mL) | 32.6 | 0.47 | > 125 | – | – | – | – |
| c1ccc(-c2cc(-c3nnn[nH]3)sc2-c2ccccc2-c2ccsc2)c(-c2ccsc2)c1 [DNM0559, 5-(4,5-Bis(2-(thiophen-3-yl)phenyl)thiophen-2-yl)-1H-tetrazole] | 2 (≈ 0.937 µg/mL) | 7.01 | 0.5 | > 125 | – | – | – | – |
| Cc1cc(Cl)ccc1-c1cc(-c2nn[nH]n2)cc(-c2ccc(Cl)cc2C)c1 [DNM0457] | – | – | – | – | 8 (≈ 3.16 µg/mL) | 1.56 | 0 | 60 (≈ 23.7 µg/mL) |
| CC(C)(C)c1ccc(-c2cc(-c3nnn[nH]3)sc2-c2ccc(C(C)(C)C)cc2)cc1 [DNM0546, 5-(4,5-Bis(4-tert-butylphenyl)thiophen-2-yl)-1H-tetrazole] | 4 (≈ 1.67 µg/mL) | 37.2 | 5.16 | > 125 | – | – | – | – |
| Cc1ccc(-c2cc(-c3nn[nH]n3)cc(-c3ccc(C)cc3-c3cccc(Cl)c3)c2)c(-c2cccc(Cl)c2)c1 [DNM0520] | – | – | – | – | 2 (≈ 1.09 µg/mL) | – | 20.86 | >125 |
| Brc1ccccc1-c1sc(-c2nnn[nH]2)cc1-c1ccccc1C1CCCC1 [DNM0571] | – | – | – | – | 8 (≈ 3.61 µg/mL) | 8.19 | 0.11 | >125 |
| Cc1ccc(-c2cc(-c3nnn[nH]3)sc2-c2ccc(C)c(C)c2)cc1C [DNM0509, 5-(4,5-Bis(3,4-dimethylphenyl)thiophen-2-yl)-1H-tetrazole] | 15 (≈ 5.41 µg/mL) | 31.1 | 0.2 | > 125 | – | – | – | – |
